These are literature values, as cited in article PMC7108400 (Leukemia research, 2019).

Structures are written as SMILES.

The test system of data set [1] is AML. The note with it: azacitidine alone; cited from earlier work.
Data set [2] has as its system de novo AML. The note with it: cited from earlier work.

Turning to `Nc1ncn([C@@H]2O[C@H](CO)[C@@H](O)[C@H]2O)c(=O)n1` [azacitidine], the “Grade ≥ 3 AEs” value in data set [1] was 81%.

Consider `O=C(CCCCCCC(=O)Nc1ccccc1)NO` [vorinostat], for which, in data set [2] (median follow-up of 82 weeks), the Median overall survival is 82 weeks. Besides, in data set [2] (with idarubicin and ara-C), the All-grade cardiac events is on record as 15%, the Diarrhea is on record as 72% and the Nausea was 65%.
